Measured values from patent US12370170B2, “Composition comprising naphthoquinone-based compound as active ingredient, for preventing or ameliorating fatigue, cachexia, pain, cognitive decline and hematopoietic stem cell reduction which are side effects related to anticancer drug treatment” (NADIANBIO LTD., priority 2016, dated 2025).

Key:
Type in all cases: in vivo, C57BL/6 mice
[1] = system: inflammatory cytokines TNF-α, IL-1β, IL-6 and IL-17; assay: Plasma inflammatory cytokines by ELISA in adriamycin animal model; settings: adriamycin 4 mg/kg/day i.p. ×3; compound 20 mg/kg oral daily from 3 days before; 4 days after final adriamycin; vs adriamycin group
Method: (§1) In this invention, 11 weeks old C57BL/6 mice were used. All the mice used in the experiments of the invention were raised in an aseptic animal room at the temperature of 22˜26 L with the humidity of 55˜60%. The mice were allowed to take general solid feed (SAMTACO Co., Ltd., Korea) and water freely. The mice were adapted for 1 week before the experiment. All the experiments were performed after obtaining approval from the clinical trial management committee in accordance with the laboratory animal care and ethics regulations of Wonkwang University. The mouse animal model of the present invention was treated with different anticancer drugs. […]
Particularly, plasma was isolated from the adriamycin animal model prepared by the same manner as described in Example 4, and the inflammatory cytokines TNF-α (R&D Systems, MTA00B), IL-1β (R&D Systems, MLB00C), IL-6 (R&D Systems, M6000B) and IL-17 (R&D Systems, M1700) were analyzed by ELISA (enzyme-linked immunosorbent assay).
To investigate the regulatory effect of β-lapachone on adriamycin induced inflammatory cytokines, plasma was isolated from the adriamycin animal model prepared by the same manner as described in Example 4, and the inflammatory cytokines TNF-α, IL-1β, IL-6 and IL-17 were analyzed by ELISA.

orexin = assay: Orexin protein in hypothalamus by ELISA, 4×ACP animal model; settings: β-lapachone 20 mg/kg oral daily from 3 days before, 2 days after ACP
Method: as §1, with “drugs. Particularly, one kind of anticancer drug was administered intraperitoneally one time or more, or several kinds of anticancer drugs were administered once or more times or at different concentrations, leading to the establishment of the animal model of the invention.” for “drugs.”
To analyze orexin protein in the 4×ACP animal model prepared by the same manner as described in Example 8, the hypothalamus of the mouse was extracted, followed by the preparation of a homogenate. Orexin (MyBioSource, MBS2505504) was analyzed by ELISA to investigate the regulatory effect of β-lapachone on orexin.

[2] = system: inflammatory cytokines TNF-α and IL-1β; assay: Brain inflammatory response: TNF-α and IL-1β in hypothalamus (RT-PCR, ELISA), 4×ACP animal model; settings: β-lapachone 20 mg/kg oral, ELISA of homogenate
Method: In this invention, 11 weeks old C57BL/6 mice were used. All the mice used in the experiments of the invention were raised in an aseptic animal room at the temperature of 22˜26 L with the humidity of 55˜60%. The mice were allowed to take general solid feed (SAMTACO Co., Ltd., Korea) and water freely. The mice were adapted for 1 week before the experiment. All the experiments were performed after obtaining approval from the clinical trial management committee in accordance with the laboratory animal care and ethics regulations of Wonkwang University. The mouse animal model of the present invention was treated with different anticancer drugs. Particularly, one kind of anticancer drug was administered intraperitoneally one time or more, or several kinds of anticancer drugs were administered once or more times or at different concentrations, leading to the establishment of the animal model of the invention. In the adriamycin-induced animal model, the mice were divided into 6 groups as follows: the control group administered with PBS (Control, 5 mice), the group administered intraperitoneally with adriamycin (4 mg/kg/day) 3 times (ADR, 5 mice), the group administered orally with dunnione or β-lapachone from 3 days before the adriamycin treatment daily (20 mg/kg, 5 mice), and the group administered with dunnione or β-lapachone (20 mg/kg, 5 mice). 4 days after the final adriamycin treatment, analysis of the mice was performed.
The present inventors established an animal model co-treated with three different anticancer drugs in this experiment. The anticancer drugs used herein were adriamycin (ADR), cyclophosphamide (CYP) and paclitaxel (PTX), which were indicated as ACP. […]
A homogenate was prepared with the mouse hypothalamus extracted from the 4×ACP animal model prepared by the same manner as described in Example 8. Then, the expressions of the inflammatory cytokines TNF-α and IL-1β in the brain tissue were analyzed by ELISA.

`CC1(C)CCC2=C(O1)c1ccccc1C(=O)C2=O` [β-lapachone, 3,4-Dihydro-2,2-dimethyl-2H-naphtho(1,2-b) pyran-5,6-dione] was tested, and the “level of inflammatory cytokines (TNF-α, IL-1β, IL-6, IL-17) in plasma” value [1] was “significantly reduced”, the “orexin reduction in the hypothalamus” value (orexin) was “significantly restored” and the “up-regulations of TNF-α and IL-1β in the hypothalamus” value [2] was “significantly suppressed”.
